Assay results reported in patent US20250339569A1, “CARBONIC ANHYDRASE IX LIGANDS” (priority 2021, published 2025).
One block for each molecule: values may come before it. Starred links: 1 amine or outer side, 2 acyl side, 3 side chain; linkers in the order of their positions; H or OH if unused. Positions of bridges follow the written chain, without caps; N, C: chain ends. Non-standard residues stand in square brackets, D forms with d. Residues, ends and D or L forms follow the SMILES beside them. *: point of attachment. X47 = NC(=O)[C@H](CCCCNC(=O)CCCC[C@@H]1SC[C@@H]2NC(=O)N[C@@H]21)NC(=O)CCC(=O)NCCCOCCOCCOCCCN*; X69 = CC1(C)C(/C=C/C=C/C=C2\N(CCCCS(=O)(=O)O)c3ccccc3C2(C)C)=[N+](CCCCCC(=O)*)c2ccccc21; mXylylene = c1cc(C[*:1])cc(C[*:2])c1; X2 = O=C(CN1CCC(N[*:1])CC1)[*:2]

Experiments:
[1] = biological target: T1, CAIX-expressing human HT-29 colorectal cancer cells (Homo sapiens, UniProt Q16790); test: FACS binding assay (EC50 determination, labeled compound); details: biotinylated or fluorophore-labeled compound, HT-29 cells, 4°C, 1 hour, read-out: pEC50 category (activity) (converted)
T1 construct: CAIX-expressing human HT-29 colorectal cancer cells; host or cells: HT-29 human colorectal cancer cells
Protocol: In order to determine binding of compounds according to the present invention to CAIX-expressing cells, a FACS binding assay was established.
CAIX-expressing human HT-29 colorectal cancer cells (DSMZ, RRID: CVCL_0320) were cultured in McCoys's 5A modified medium (Biochrom, #F1015) including 10% fetal calf serum (FCS), 2 mM L-glutamine, 100 U/ml penicillin and 100 μg/mL streptomycin. Cells were detached with Accutase (Biolegend, #423201) and washed in FACS buffer (PBS including 1% FCS). Cells were diluted in FACS buffer to a final concentration of 500.000 cells per ml. 200 μL of the cell suspension were transferred to a u-shaped non-binding 96-well plate (Greiner) and cells were washed in ice-cold FACS buffer.
When biotinylated compounds were used an additional incubation step with 1 μg/mL APC-Streptavidin (Miltenyi; #130-106-791) in 50 μL FACS buffer for 30 minutes on ice was performed.
Cells were washed twice with ice-cold FACS buffer and analyzed in an Attune NxT flow cytometer (Thermo Fisher). Median fluorescence intensities (MFI) of the APC/Cy5-channel were calculated by Attune NxT software. MFI values were plotted against peptide concentration and four parameter logistic (4PL) curve fitting and EC50/pEC50 or IC50/pIC50 calculations were performed using ActivityBase software.

[2] = test system: HT-29 (CRC) human cancer cell line xenograft; test: In vivo efficacy, uptake and tolerability of 177Lu-DPI-4452 (and 68Ga-DPI-4452) in HT-29 xenograft mouse model; parameters: species or system NMRI nude mice; details: HT-29 model; for tolerability of treatment: 177Lu 33 or 100 MBq or 3×33 MBq, 68Ga 10 MBq, i.v.; for uptake in tumor compared to kidney and liver: SPECT/CT 4 h (177Lu) or PET/CT 1 h (68Ga)
Protocol: (§1) The human colorectal cancer cell line HT-29 was cultured in Modified McCoy's 5a Medium supplemented with 10% FBS+1% Pen/Strep, and the human clear cell renal cancer cell line SK-RC-52 was cultured in RPMI-1640 GlutaMax-I supplemented with 10% FBS+1% Pen/Strep.
(§2) 2×10^6 cells were suspended in 100 μL PBS and Matrigel (1:1) and subcutaneously implanted into the neck of anesthetized female immunodeficient NMRI nude mice. Tumor volume (0.52×(length×width^2)) and animal weight was monitored twice weekly until 42 days post treatment initiation. Animals were humanely euthanized by cervical dislocation at predefined study or humane endpoints.
(§3) Animals were randomized into equal groups based on tumor volume and body weight. Treatments were initiated at a mean group tumor volume of 140-180 mm^3 and administered intravenously in the tail vein in a 100 μL dosing volume.
(§4) For both models, treatment groups consisted of 10 mice per group and received either a A) Single administration (day 1) of vehicle, B) Single administration (day 1) of 100 MBq of ^177Lu-DPI-4452, C) Single administration (day 1) of 33 MBq of ^177Lu-DPI-4452 or D) Three administrations (day 1, 8, 15) of 33 MBq of ^177Lu-DPI-4452. To correlate the ^68Ga-DPI-4452 signal with the ^177Lu-DPI-4452 uptake in tumors, an additional satellite group E of 6 mice received a single administration (day 1) of 10 MBq of ^68Ga-DPI-4452 followed by a single administration (day 8) of 33 MBq of ^177Lu-DPI-4452.
(§5) In groups A-D, radioactivity uptake (as % of injected dose/gram tissue) was assessed in the tumor, kidney, and liver in 3 animals per treatment group by whole-body SPECT/CT imaging (nanoScan SPECT/CT, Mediso) at 4 h after each ^177Lu-DPI-4452 administration, using the following parameters: • Imaging bed: Two/three mice bed • CT acquisition • Helical scan, 480 projections • Pitch=1.0 • Voltage=50 kVp • Exposure=170 ms • SPECT acquisition: • Pinhole SPECT • Energy windows: Primor Peak 208 full width: 20%, Secondary 112.9, Tertiary: 56.1 keV • Acquisition time: Up to 30 min • Frame time: 30 s
(§6) In the satellite mice (group E), radioactivity uptake (as % of injected dose/gram tissue) was assessed in the tumor, kidney, and liver in all 6 animals by both whole-body SPECT imaging at 4 h after administration of 33 MBq ^177Lu-DPI-4452, and by whole-body PET/CT imaging (nanoScan PET/CT, Mediso) at 1 h after 10 MBq ^68Ga-DPI-4452 administration, using the following parameters: • Animals per bed: 3 • PET acquisition time: Up to 10 min • PET acquisition start: 1 hour after injection
(§7) One week later the 6 satellite mice were then assessed again for radioactivity uptake by whole-body SPECT/CT imaging at 4 h after the single ^177Lu-DPI-4452 administration using parameters as described above.
(§8) For both models blood sampling for hematology was performed on all animals in group A-D at study day −1, 7, 14 and at study end. Each mouse was restrained and 200 μl blood was obtained from the sublingual or jugular vein in EDTA-tubes and analyzed on the sampling day on a ProCyte Dx Hematology Analyzer with mouse settings. In addition, for the SK-RC-52 model at study day 14 and at study end (day 43), excess blood from the hematology analysis was spun and plasma was obtained (centrifugation at 2000 g for 10 mins at 4° C. in EDTA tubes). The plasma was analyzed for creatinine and urea concentrations using a KONELAB PRIME 30i instrument (Thermo Fisher Scientific).

[3] = test system: SK-RC-52 (ccRCC) human cancer cell line xenograft; test: In vivo efficacy, uptake and tolerability of 177Lu-DPI-4452 (and 68Ga-DPI-4452) in SK-RC-52 xenograft mouse model; parameters: species or system NMRI nude mice; details: SK-RC-52 model; for tolerability of treatment: 177Lu 33 or 100 MBq or 3×33 MBq, 68Ga 10 MBq, i.v.; for uptake in tumor compared to kidney and liver: SPECT/CT 4 h (177Lu) or PET/CT 1 h (68Ga)
Protocol: as §1, §2, §3, §4, §5, §6, §7, §8

- EC50 [1]: < 10 nM
SMILES: CC[C@H](C)[C@@H]1NC(=O)[C@H](CCC(=O)O)NC(=O)[C@@H](NC(=O)[C@H](CCCNC(=N)N)NC(=O)[C@@H](N)CCSC)CSCc2cccc(c2)CSC[C@@H](C(=O)NCCCOCCOCCOCCCNC(=O)CCC(=O)N[C@@H](CCCCNC(=O)CCCC[C@@H]2SC[C@@H]3NC(=O)N[C@@H]32)C(N)=O)NC(=O)[C@H](CC(=O)O)NC(=O)[C@H](C(C)C)NC(=O)[C@H](Cc2c[nH]c3ccccc23)NC(=O)CNC(=O)[C@H](CC(=O)O)NC(=O)[C@H](C(C)C)NC(=O)[C@H](Cc2c[nH]c3ccccc23)NC1=O [3BP-2778] (H-MRCEIWVDGWVDC-X47; linker 3-13 via mXylylene)

- EC50 [1]: < 10 nM
SMILES: CSCC[C@H](N)C(=O)N[C@H](C(=O)N[C@@H](Cc1ccc(O)cc1)C(=O)N[C@H]1CSCc2cccc(c2)CSC[C@@H](C(=O)NCCCOCCOCCOCCCNC(=O)CCC(=O)N[C@@H](CCCCNC(=O)CCCC[C@@H]2SC[C@@H]3NC(=O)N[C@@H]32)C(N)=O)NC(=O)[C@H](CO)NC(=O)[C@H](Cc2c[nH]c3ccccc23)NC(=O)CNC(=O)[C@H](CC(C)C)NC(=O)[C@H](Cc2c[nH]c3ccccc23)NC(=O)[C@H](CO)NC(=O)CNC(=O)[C@H](CCC(=O)O)NC1=O)C(C)C [3BP-2777] (H-MVYCEGSWLGWSC-X47; linker 4-13 via mXylylene)

- EC50 [1]: < 10 nM
SMILES: CC(C)C[C@@H]1NC(=O)[C@H](Cc2c[nH]c3ccccc23)NC(=O)[C@H](CC(=O)O)NC(=O)[C@H]2CCCN2C(=O)[C@H](CCC(=O)O)NC(=O)[C@@H](NC(=O)[C@H](Cc2ccc(O)cc2)NC(=O)[C@@H](NC(=O)CN2CCC(NC(=O)CCCCC[N+]3=C(/C=C/C=C/C=C4\N(CCCCS(=O)(=O)O)c5ccccc5C4(C)C)C(C)(C)c4ccccc43)CC2)C(C)C)CSCc2cccc(c2)CSC[C@@H](C(N)=O)NC(=O)[C@H](CO)NC(=O)[C@H](Cc2c[nH]c3ccccc23)NC(=O)[C@H]([C@@H](C)O)NC1=O [3BP-4149, Cy5SO3-APAc-Val-Tyr-[Cys(3MeBn)-Glu-pro-Asp-Trp-Leu-Thr-Trp-Ser-Cys]-NH2] (X69-[X2]VYCE[dP]DWLTWSC-NH2; linker 4-13 via mXylylene)

Further lines, the molecule ahead of its results:

SMILES: CC[C@H](C)[C@@H]1NC(=O)[C@H](CCC(=O)O)NC(=O)[C@@H](NC(=O)[C@H](CCC(N)=O)NC(=O)[C@@H](N)CCSC)CSCc2cccc(c2)CSC[C@@H](C(=O)NCCCOCCOCCOCCCNC(=O)CCC(=O)N[C@@H](CCCCNC(=O)CCCC[C@@H]2SC[C@@H]3NC(=O)N[C@@H]32)C(N)=O)NC(=O)[C@H]([C@@H](C)O)NC(=O)[C@H](C(C)C)NC(=O)[C@H](Cc2c[nH]c3ccccc23)NC(=O)CNC(=O)[C@H](CC(=O)O)NC(=O)[C@H](C(C)C)NC(=O)[C@H](Cc2c[nH]c3ccccc23)NC1=O [3BP-2775] (H-MQCEIWVDGWVTC-X47; linker 3-13 via mXylylene)
- EC50 [1]: 10 to 79.4 nM

SMILES: CSCC[C@H](N)C(=O)N[C@H](C(=O)N[C@@H](Cc1ccc(O)cc1)C(=O)N[C@H]1CSCc2cccc(c2)CSC[C@@H](C(=O)NCCCOCCOCCOCCCNC(=O)CCC(=O)N[C@@H](CCCCNC(=O)CCCC[C@@H]2SC[C@@H]3NC(=O)N[C@@H]32)C(N)=O)NC(=O)[C@H](CCC(N)=O)NC(=O)[C@H](Cc2c[nH]c3ccccc23)NC(=O)[C@H]([C@@H](C)O)NC(=O)[C@H](CC(C)C)NC(=O)[C@H](Cc2c[nH]c3ccccc23)NC(=O)[C@H](CC(=O)O)NC(=O)CNC(=O)[C@H](CCC(=O)O)NC1=O)C(C)C [3BP-2776] (H-MVYCEGDWLTWQC-X47; linker 4-13 via mXylylene)
- EC50 [1]: < 10 nM

SMILES: CC(C)C[C@@H]1NC(=O)[C@H](Cc2cccc(NC(=O)CCCS(N)(=O)=O)c2)NC(=O)[C@H](CC(=O)O)NC(=O)[C@H]2CCCN2C(=O)[C@H](CCC(=O)O)NC(=O)[C@@H](NC(=O)[C@H](CCC(N)=O)NC(=O)CN2CCN(C(=O)CN3CCN(CC(=O)O)CCN(CC(=O)O)CCN(CC(=O)O)CC3)CC2)CSCc2cccc(c2)CSC[C@@H](C(N)=O)NC(=O)[C@H](CO)NC(=O)[C@H](Cc2c[nH]c3ccccc23)NC(=O)[C@H]([C@@H](C)O)NC1=O [^177Lu-DPI-4452, metal not drawn]
- white blood cells, lymphocytes and neutrophils versus vehicle ([2]; 33/100 MBq): relative suppression
- tolerability of treatment [2]: well tolerated
- uptake in tumor compared to kidney and liver [2]: Preferential uptake in the tumor compared to kidney and liver
- white blood cells, lymphocytes and neutrophils versus vehicle ([3]; 33/100 MBq): relative suppression
- creatinine and urea levels ([3]; plasma, day 14 and study end): No differences in creatinine and urea levels between treatment groups
- tolerability of treatment [3]: well tolerated
- uptake in tumor compared to kidney and liver [3]: Preferential uptake in the tumor compared to kidney and liver

SMILES: CC(C)C[C@@H]1NC(=O)[C@H](Cc2cccc(NC(=O)CCCS(N)(=O)=O)c2)NC(=O)[C@H](CC(=O)O)NC(=O)[C@H]2CCCN2C(=O)[C@H](CCC(=O)O)NC(=O)[C@@H](NC(=O)[C@H](CCC(N)=O)NC(=O)CN2CCN(C(=O)CN3CCN(CC(=O)O)CCN(CC(=O)O)CCN(CC(=O)O)CC3)CC2)CSCc2cccc(c2)CSC[C@@H](C(N)=O)NC(=O)[C@H](CO)NC(=O)[C@H](Cc2c[nH]c3ccccc23)NC(=O)[C@H]([C@@H](C)O)NC1=O [^68Ga-DPI-4452, metal not drawn]
- tolerability of treatment [2]: well tolerated
- uptake in tumor compared to kidney and liver [2]: Preferential tumor uptake
- tolerability of treatment [3]: well tolerated
- uptake in tumor compared to kidney and liver [3]: Preferential tumor uptake
